Test results from PubChem BioAssay (NCI).
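96-well plates; 48 h exposure; 5 concentrations. Endpoints by linear interpolation between flanking doses. Not reached: highest tested concentration assigned. The concentration for full growth arrest is given as TGI.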

Assays:
Assay in all cases: NCI anticancer screen, dose series, 48 h
786-0 renal = test system: 786-0 renal
A498 renal = test system: A498 renal
A549 NSCLC = test system: A549 NSCLC
ACHN renal = test system: ACHN renal
BT-549 breast = test system: BT-549 breast
CAKI-1 renal = test system: CAKI-1 renal
CCRF-CEM leukemia = test system: CCRF-CEM leukemia
COLO 205 colon = test system: COLO 205 colon
DU-145 prostate = test system: DU-145 prostate
EKVX NSCLC = test system: EKVX NSCLC
HCC-2998 colon = test system: HCC-2998 colon
HCT-116 colon = test system: HCT-116 colon
HCT-15 colon = test system: HCT-15 colon
HL-60(TB) leukemia = test system: HL-60(TB) leukemia
HOP-62 NSCLC = test system: HOP-62 NSCLC
HOP-92 NSCLC = test system: HOP-92 NSCLC
HS 578T breast = test system: HS 578T breast
HT29 colon = test system: HT29 colon
IGROV1 ovarian = test system: IGROV1 ovarian
K-562 leukemia = test system: K-562 leukemia
KM12 colon = test system: KM12 colon
LOX IMVI melanoma = test system: LOX IMVI melanoma
M14 melanoma = test system: M14 melanoma
MALME-3M melanoma = test system: MALME-3M melanoma
MCF7 breast = test system: MCF7 breast
MDA-MB-435 = test system: MDA-MB-435
MOLT-4 leukemia = test system: MOLT-4 leukemia
NCI-H226 lung = test system: NCI-H226 lung
NCI-H23 lung = test system: NCI-H23 lung
NCI-H460 lung = test system: NCI-H460 lung
NCI-H522 lung = test system: NCI-H522 lung
NCI/ADR-RES ovarian = test system: NCI/ADR-RES ovarian
OVCAR-3 ovarian = test system: OVCAR-3 ovarian
OVCAR-4 ovarian = test system: OVCAR-4 ovarian
OVCAR-5 ovarian = test system: OVCAR-5 ovarian
OVCAR-8 ovarian = test system: OVCAR-8 ovarian
PC-3 prostate = test system: PC-3 prostate
RPMI-8226 leukemia = test system: RPMI-8226 leukemia
RXF 393 renal = test system: RXF 393 renal
SF-295 CNS = test system: SF-295 CNS
SF-539 CNS = test system: SF-539 CNS
SK-MEL-2 melanoma = test system: SK-MEL-2 melanoma
SK-MEL-28 melanoma = test system: SK-MEL-28 melanoma
SK-MEL-5 melanoma = test system: SK-MEL-5 melanoma
SK-OV-3 ovarian = test system: SK-OV-3 ovarian
SNB-19 CNS = test system: SNB-19 CNS
SNB-75 CNS = test system: SNB-75 CNS
SR leukemia = test system: SR leukemia
SW-620 colon = test system: SW-620 colon
T-47D breast = test system: T-47D breast
TK-10 renal = test system: TK-10 renal
U251 CNS = test system: U251 CNS
UACC-257 melanoma = test system: UACC-257 melanoma
UACC-62 melanoma = test system: UACC-62 melanoma
UO-31 renal = test system: UO-31 renal

## COC(=O)[C@@H]1C=C[C@H](OC2OC(COC(C)=O)C(OC(C)=O)C(OC(C)=O)C2OC(C)=O)n2c(=O)c3ccccc3c(=O)n21 (stereo not given in full)
786-0 renal
  TGI: 58.9 µM
A498 renal
  TGI: 32.6 µM
A549 NSCLC
  TGI: 47.4 µM
ACHN renal
  TGI: 24.1 µM
BT-549 breast
  TGI: 18.2 µM
CAKI-1 renal
  TGI: 13 µM
CCRF-CEM leukemia
  TGI: 24.9 µM
COLO 205 colon
  TGI: 22.4 µM
DU-145 prostate
  TGI: 38.3 µM
EKVX NSCLC
  TGI: 30.5 µM
HCC-2998 colon
  TGI: 29.6 µM
HCT-116 colon
  TGI: 22.8 µM
HCT-15 colon
  TGI: 22.7 µM
HL-60(TB) leukemia
  TGI: 30.2 µM
HOP-62 NSCLC
  TGI: 36.3 µM
HOP-92 NSCLC
  TGI: 23.7 µM
HS 578T breast
  TGI: 76.2 µM
HT29 colon
  TGI: 60.9 µM
IGROV1 ovarian
  TGI: 33.3 µM
K-562 leukemia
  TGI: 24.5 µM
KM12 colon
  TGI: 27.4 µM
LOX IMVI melanoma
  TGI: 29.5 µM
M14 melanoma
  TGI: 36.9 µM
MALME-3M melanoma
  TGI: 39.6 µM
MCF7 breast
  TGI: 29.3 µM
MDA-MB-435
  TGI: 23 µM
MOLT-4 leukemia
  TGI: 41.1 µM
NCI-H226 lung
  TGI: 46.3 µM
NCI-H23 lung
  TGI: 39.9 µM
NCI-H460 lung
  TGI: 29 µM
NCI-H522 lung
  TGI: 3.28 µM
NCI/ADR-RES ovarian
  TGI: 56.7 µM
OVCAR-3 ovarian
  TGI: 22.2 µM
OVCAR-4 ovarian
  TGI: 34.6 µM
OVCAR-5 ovarian
  TGI: 29.6 µM
OVCAR-8 ovarian
  TGI: 49 µM
PC-3 prostate
  TGI: 25.3 µM
RPMI-8226 leukemia
  TGI: 35.6 µM
RXF 393 renal
  TGI: 20.1 µM
SF-295 CNS
  TGI: 53.9 µM
SF-539 CNS
  TGI: 33.7 µM
SK-MEL-2 melanoma
  TGI: 24.5 µM
SK-MEL-28 melanoma
  TGI: 27.8 µM
SK-MEL-5 melanoma
  TGI: 30.2 µM
SK-OV-3 ovarian
  TGI: 28.2 µM
SNB-19 CNS
  TGI: 47.2 µM
SNB-75 CNS
  TGI: 20.6 µM
SR leukemia
  TGI: > 100 µM
SW-620 colon
  TGI: 24.9 µM
T-47D breast
  TGI: 20.9 µM
TK-10 renal
  TGI: 18.3 µM
U251 CNS
  TGI: 25.1 µM
UACC-257 melanoma
  TGI: 51.2 µM
UACC-62 melanoma
  TGI: 23 µM
UO-31 renal
  TGI: 27.5 µM
